One may read the IC50 as the midpoint of a concentration-inhibition curve.

SMILES strings stand for the structures. Structures can show the parent of a compound that is named as a salt.

The text below walks through data of patent EP1220845B1, “ARYL-SULFONAMIDE SUBSTITUTED BENZIMIDAZOL DERIVATIVES AND USE OF SAID AS TRYPTASE INHIBITORS” (Boehringer Ingelheim Pharma GmbH & Co.KG, priority 1999, dated 2001).

The test concerns the target T1, rh beta Tryptase (Homo sapiens, UniProt Q15661).
T1 construct: purchased Promega
In words: Tryptase inhibition test (cleavage of chromogenic substrate, p-nitroaniline read at 405 nm). To be noted: Tris HCl buffer 100 mM, calcium 5 mM, heparin, pH 7.4, 37°C; substrate N-p-Tosyl-Gly-Pro-Lys-para-nitroanilin 0.6 mM; 5 min preincubation, 5 min incubation; 0.91 U/ml enzyme. Type of test: biochemical. Here is the method: Die erfindungsgemäßen Verbindungen zeichnen sich durch ihre Tryptase-inhibierende Wirksamkeit aus. Besagte Fähigkeit, die Tryptase zu inhibieren, wurde gemäß der nachfolgenden Testbeschreibung untersucht. Die Bestimmung wird in Tris HCI Puffer (100 mM), der zusätzlich Calcium (5 mM) und Heparin ([…]) enthält, bei pH 7.4 durchgeführt. Als Standard wird rh beta Tryptase eingesetzt, die beispielsweise von Promega käuflich zu erwerben ist. Als Substrat dient N-p-Tosyl-[…]-nitroanilin in einer Konzentration von 0.6 mM. Das Substrat wird durch Tryptase verdaut wobei p-Nitroanilin entsteht, das bei 405 nm gemessen werden kann. Üblicherweise wird eine Inkubationszeit von 5 Minuten und eine Inkubationstemperatur von 37°C gewählt. Als Enzymaktivität werden 0.91 U/ml eingesetzt. Die Bestimmung erfolgt in einem Autoanalyser (Cobas Bio) der Firma Hofmann LaRoche. Die potentiellen Hemmsubstanzen werden in Konzentrationen von 10 μM im Screening eingesetzt, wobei die Hemmung der Tryptase in Prozent angegeben wird. […] Nach 5-minütiger Vorinkubation der potentiellen Hemmsubstanzen, wird das Substrat zum […] Reaktion zugegeben, wobei die Bildung von p-Nitroanilin […]. […]

T1 sequence (Q15661 31-275): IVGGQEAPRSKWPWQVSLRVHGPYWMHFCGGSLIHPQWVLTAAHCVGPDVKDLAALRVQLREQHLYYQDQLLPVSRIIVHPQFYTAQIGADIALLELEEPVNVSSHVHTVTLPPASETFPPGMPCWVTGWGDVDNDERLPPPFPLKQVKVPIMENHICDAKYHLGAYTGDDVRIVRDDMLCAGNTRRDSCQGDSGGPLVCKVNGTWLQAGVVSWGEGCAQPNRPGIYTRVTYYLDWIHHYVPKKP

As for `CCN(CC)CCN(c1ccc2c(c1)nc(CCc1ccc(C(=N)N)cc1)n2C)S(=O)(=O)c1cccc2c(N(C)C)cccc12` [Beispiel 2, N-{2-[2-(4-Amidinophenyl)ethyl]-1-methyl-benzimidazol-5-yl}-N-diethylaminoethyl-(dansylamid)-dihydrochlorid], the IC50 amounted to 11 nM.
